Test results reported in US20110009379A1, “INDOLINONE COMPOUND” (ASTELLAS PHARMA INC., priority 2008, published 2011).

Columns and labels:
gastric emptying of rats = test: Activity to gastric emptying of TRPA1 agonist (phenol red, rats); format: in vivo; conditions: Rattus norvegicus; male wistar rats, oral administration, versus control animals; read-out: ED50 (amount which suppresses 50% of gastric emptying)
Description: When EC cell is stimulated by content of a gastrointestinal tract, 5-HT is secreted. The secreted 5-HT promotes the secretion or motility through a 5-HT receptor present in intestinal nerve plexus or gastrointestinal smooth muscle. The secreted 5-HT is instantly taken into a cell by its specific transporter, and is metabolized by […]. Thus, while it is considerably difficult to directly measure the secreted 5-HT concentration, it has been known that gastric emptying is delayed as a physiological activity through 5-HT in rodents. In order to verify in vivo activity through 5-HT of the compound to be tested, activity to gastric emptying of rats by various TRPA1 agonists was studied.
In the experiment, male wistar rats (body weight 290 to 360 g) were used. The animals were purchased from Japan SLC (Shizuoka). The animals were allowed to drink water freely under a constitutive environment.
5 minutes after the medicine was orally administered, 0.05% phenol red solution (1.5 mL) was orally administered. After 15 minutes, rats were put painlessly to death by cervical vertebral dislocation, their stomachs were exenterated, and phenol red was eluted with 0.1M aqueous NaOH solution (5 mL) from the exenterated stomachs. 20% aqueous trichloroacetic acid solution (0.1 mL) was added to the NaOH solution (0.5 mL), followed by stirring and centrifugation at 15,000 rpm, at 4° C., for 10 minutes. 0.5M aqueous NaOH solution (0.2 mL) was added to the supernatant (0.05 mL), followed by stirring, and absorbance at 560 nm was measured using an absorption spectrometer (spectrometer spectramax M2; Molecular Devices, CA, USA).
A gastric emptying was calculated by the following calculating formula.
Gastric emptying (%)=100−(A/B)×100
A: amount of phenol red remaining in stomach
B: amount of phenol red remaining in stomach just after administering phenol red
ED50 values (amount of the compound to be tested which suppresses 50% of gastric emptying, with respect to the control animals without administering the compound to be tested) of some of the compounds of the formula (I) are shown in Table 2. In this connection, comparative compound 1 and comparative compound 2 are (3E)-1-methyl-3-(2-oxopropyridene)-1,3-dihydro-2H-indol-2-one, and (3E)-3-(2-oxopropyridene)-1-prop-2-in-1-yl-1,3-dihydro-2H-indol-2-one described in Non Patent Document 4 above, and has the following chemical structures, respectively.

[1] = system: delay of discharging time induced by loperamide in mice; test: Loperamide induced constipation model (glass bead discharging time); format: in vivo; conditions: Mus musculus; mice (Slc:ddY, male), 0.3 mg/kg loperamide subcutaneously, compound orally; read-out: ED50 (amount which suppresses 50% of the delay of discharging time induced by loperamide)
Experimental: It has been known that loperamide as a μ opioid receptor agonist causes convulsive contraction in intestinal tracts. Thus, a delay in the intestinal transport ability due to loperamide is thought as a constipation IBS model.
Mice (Slc:ddY, five-week old, male) fasted from the previous evening of the experiment. On the day of the experiment, the mice were acclimatized to cages for measurement for 1 hour or more, and 0.3 mg/kg of loperamide was administered subcutaneously. After 30 minutes, a compound to be tested was administered orally, ether anesthesia was applied to the mice immediately thereafter, glass beads having diameter of 3 mm were inserted to 2 cm from anus. The mice were returned to the cages for measurement, and the time from waking to discharging of the glass beads was measured. Furthermore, the compound to be tested was dissolved into 10% DMSO, 10% cremophor, and 80% distillated water.
As a result, it has been recognized that there was a delay in the beads discharging time of the loperamide administration group (vehicle group) in comparison with the loperamide non-administration group (control group).
ED50 values (amount of the compound to be tested which suppresses 50% of the delay of discharging time induced by loperamide) of some of the compounds of the formula (I) are shown in Table 3. In this connection, comparative compound 1 is the same compound as comparative compound 1 in Test Example 4.

Cytochrome P450(2D6) = Cytochrome P450(2D6) (Homo sapiens, UniProt P10635); test: Cytochrome P450(2D6) enzyme inhibition test; format: in vitro ADME; conditions: CYP2D6, fluorescent substrate 1.5 μmol/L, 37° C., 20 minutes
Chain of Cytochrome P450(2D6) (P10635 whole entry): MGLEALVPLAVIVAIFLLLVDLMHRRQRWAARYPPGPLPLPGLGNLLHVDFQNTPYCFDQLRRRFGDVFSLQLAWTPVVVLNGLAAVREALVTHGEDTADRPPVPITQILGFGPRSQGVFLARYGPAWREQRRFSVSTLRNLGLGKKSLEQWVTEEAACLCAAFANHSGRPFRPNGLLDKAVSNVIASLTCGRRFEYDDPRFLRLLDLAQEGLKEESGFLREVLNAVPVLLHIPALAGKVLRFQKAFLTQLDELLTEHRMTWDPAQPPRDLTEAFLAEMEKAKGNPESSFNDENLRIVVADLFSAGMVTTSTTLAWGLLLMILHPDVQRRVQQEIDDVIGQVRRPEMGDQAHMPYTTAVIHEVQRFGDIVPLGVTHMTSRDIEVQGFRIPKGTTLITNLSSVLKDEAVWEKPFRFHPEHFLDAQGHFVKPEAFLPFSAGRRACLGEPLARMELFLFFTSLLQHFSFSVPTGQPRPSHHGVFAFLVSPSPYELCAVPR
Method in brief: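 CYP2D6 (2.5×10^-8 M) incubated 20 min at 37 °C with 1.5 μmol/L AMMC substrate and compound (3.1×10^-7 to 2×10^-5 M) in pH 7.4 phosphate buffer with NADPH-regenerating system. Stopped with Tris/acetonitrile, fluorescence read at ex 390/em 460 nm, and IC50 taken at 50% inhibition.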

IC50 (Cytochrome P450(2D6)): > 25 µM
melting point: 151 to 153 °C
SMILES: O=C(O)/C=C1/C(=O)N(CC2CCCC2)c2c(F)cccc21 [Example 28, (2E)-[1-(cyclopentylmethyl)-7-fluoro-2-oxo-1,2-dihydro-3H-indol-3-ylidene]acetic acid]
ED50 (gastric emptying of rats): 0.44 mg/kg
ED50 [1]: 0.1 mg/kg
